Results from PubChem BioAssay AID256 (DTP/NCI, 2004).
“And” between values parts separate entries of the source, which are not always exact repeats. Equal values may be shown once. Inconclusive results and toxic doses are left out. Rule for the calls: active = survival T/C of 150% or more; inactive = T/C below 125% in these data. Non-standard residues stand in square brackets, D forms with d. Residues, ends and D or L forms follow the SMILES beside them. ξ: configuration not given here. *: point of attachment. ξF = NC(Cc1ccccc1)C(=O)O; Cbz = O=C(OCc1ccccc1)*; OBn = c1ccc(CO*)cc1

System: CD2F1 mice, L1210 leukemia ip, survival T/C
Test: NCI In Vivo Anticancer Drug Screen. Data for tumor model L1210 Leukemia (intraperitoneal) in CD2F1 (CDF1) mice
Settings: endpoint: mean survival time, higher = longer survival
How it was run: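 Activity against a transplanted murine tumor was judged by comparing the compound group with a vehicle group. The outcome in the treated animals was divided by that in the controls.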

[1] = dose: 100.0 mg/kg/injection, schedule: Q04DX003 (ip), vehicle: saline with Tween-80
[2] = dose: 100.0 mg/kg/injection, schedule: Q01DX001 (ip), vehicle: saline with Tween-80
[3] = dose: 400.0 mg/kg/injection, schedule: Q01DX001 (ip), vehicle: saline with Tween-80
[4] = dose: 200.0 mg/kg/injection, schedule: Q04DX003 (ip), vehicle: saline with Tween-80
[5] = dose: 400.0 mg/kg/injection, schedule: Q04DX003 (ip), vehicle: saline with Tween-80
[6] = dose: 100.0 mg/kg/injection, schedule: Q04DX002 (ip), vehicle: saline with Tween-80
[7] = dose: 200.0 mg/kg/injection, schedule: Q04DX002 (ip), vehicle: saline with Tween-80
[8] = dose: 400.0 mg/kg/injection, schedule: Q04DX002 (ip), vehicle: saline with Tween-80
[9] = dose: 200.0 mg/kg/injection, schedule: Q01DX001 (ip), vehicle: saline
[10] = dose: 50.0 mg/kg/injection, schedule: Q01DX009 (ip), vehicle: saline with Tween-80
[11] = dose: 100.0 mg/kg/injection, schedule: Q01DX009 (ip), vehicle: saline with Tween-80
[12] = dose: 200.0 mg/kg/injection, schedule: Q01DX009 (ip), vehicle: saline with Tween-80
[13] = dose: 100.0 mg/kg/injection, schedule: Q01DX001 (ip), vehicle: saline
[14] = dose: 400.0 mg/kg/injection, schedule: Q01DX001 (ip), vehicle: saline
[15] = dose: 50.0 mg/kg/injection, schedule: Q01DX009 (ip), vehicle: Klucel (hydroxypropylcellulose) (HPC)
[16] = dose: 100.0 mg/kg/injection, schedule: Q01DX009 (ip), vehicle: Klucel (hydroxypropylcellulose) (HPC)
[17] = dose: 200.0 mg/kg/injection, schedule: Q01DX009 (ip), vehicle: Klucel (hydroxypropylcellulose) (HPC)
[18] = dose: 400.0 mg/kg/injection, schedule: Q01DX009 (ip), vehicle: Klucel (hydroxypropylcellulose) (HPC)
[19] = dose: 400.0 mg/kg/injection, schedule: Q01DX009 (ip), vehicle: saline with Tween-80
[20] = dose: 50.0 mg/kg/injection, schedule: Q04DX002 (ip), vehicle: saline with Tween-80

Measured: T/C

CC12CCC3C(CC=C4CC([Se]C(=N)N)CCC43C)C1CCC2=O (stereo not given)
inactive: dose: 75.0 mg/kg/injection, schedule: Q01DX001 (ip), vehicle: steriod suspending solution 95 % of control | dose: 150.0 mg/kg/injection, schedule: Q01DX001 (ip), vehicle: steriod suspending solution 95 % of control | dose: 300.0 mg/kg/injection, schedule: Q01DX001 (ip), vehicle: steriod suspending solution 95 % of control

O=C(O)C[N-]c1ccccc1.O=C(O)C[N-]c1ccccc1.[Ni+2]
inactive: dose: 25.0 mg/kg/injection, schedule: Q01DX009 (ip), vehicle: saline with Tween-80 95 % of control | dose: 50.0 mg/kg/injection, schedule: Q04DX003 (ip), vehicle: saline with Tween-80 107 % of control | [1] 106 % of control

CC(C)C1(C(=O)NNC(=O)CCCc2ccc(N(CCCl)CCCl)cc2)OC2(O)CCCCCN2C1=O (stereo not given)
inactive: dose: 6.25 mg/kg/injection, schedule: Q04DX003 (ip), vehicle: DMSO 101 % of control | dose: 12.5 mg/kg/injection, schedule: Q04DX003 (ip), vehicle: DMSO 95 % of control | dose: 25.0 mg/kg/injection, schedule: Q04DX003 (ip), vehicle: DMSO 114 % of control

C(#Cc1ccccc1)C[P+](c1ccccc1)(c1ccccc1)c1ccccc1
inactive: dose: 1.25 mg/kg/injection, schedule: Q01DX009 (ip), vehicle: saline with Tween-80 95 % of control | dose: 2.5 mg/kg/injection, schedule: Q01DX009 (ip), vehicle: saline with Tween-80 101 % of control | dose: 5.0 mg/kg/injection, schedule: Q01DX001 (ip), vehicle: saline with Tween-80 102 % of control | dose: 5.0 mg/kg/injection, schedule: Q01DX009 (ip), vehicle: saline with Tween-80 93 % of control and 103 % of control | dose: 10.0 mg/kg/injection, schedule: Q01DX001 (ip), vehicle: saline with Tween-80 106 % of control | dose: 20.0 mg/kg/injection, schedule: Q01DX001 (ip), vehicle: saline with Tween-80 104 % of control

CN(/N=C/c1ccc([N+](=O)[O-])cc1)c1ccccc1
inactive: [2] 100 % of control | dose: 200.0 mg/kg/injection, schedule: Q01DX001 (ip), vehicle: saline with Tween-80 106 % of control | [3] 91 % of control

COc1ccc(CCNc2ccc(OC)c(OC)c2)cc1OC
inactive: dose: 12.5 mg/kg/injection, schedule: Q01DX009 (ip), vehicle: water 100 % of control | dose: 25.0 mg/kg/injection, schedule: Q01DX009 (ip), vehicle: water 96 % of control | dose: 50.0 mg/kg/injection, schedule: Q01DX009 (ip), vehicle: water 100 % of control | dose: 100.0 mg/kg/injection, schedule: Q01DX009 (ip), vehicle: water 96 % of control | dose: 200.0 mg/kg/injection, schedule: Q01DX009 (ip), vehicle: water 91 % of control

O=C1C(=O)c2ccccc2C(O)=C1CC1=C(O)c2ccccc2C(=O)C1=O
inactive: [1] 103 % of control | [4] 101 % of control | [5] 106 % of control

Cc1ccc(C(=O)O)s1
inactive: [1] 91 % of control | [4] 97 % of control

O=C(O)c1c(Cl)ccc(F)c1Cl
inactive: [6] 105 % of control | [7] 105 % of control | [8] 94 % of control

Cc1nc(C)c(Cc2ccccc2O)c(=O)[nH]1
inactive: [9] 103 % of control

O=C(O)C(Cl)(c1ccccc1)C(Cl)c1ccccc1 (stereo not given)
inactive: [10] 94 % of control | [11] 100 % of control | [1] 101 % of control | [12] 98 % of control | [4] 101 % of control

OCC1OC(n2c(SCc3ccccc3)nc3ccccc32)C(O)C1O (stereo not given)
inactive: [13] 102 % of control | [9] 102 % of control | [14] 97 % of control

O=C(O)c1cccnc1F
inactive: [1] 94 % of control | [4] 98 % of control | [5] 96 % of control

CC(=O)OC1COC(n2cnc3c(=S)nc[nH]c32)C(OC(C)=O)C1OC(C)=O (stereo not given)
inactive: [13] 97 % of control | [9] 102 % of control | [14] 100 % of control

c1ccc(N/N=C2/c3ccccc3CC23OC3c2ccccc2)cc1 (stereo not given)
inactive: dose: 25.0 mg/kg/injection, schedule: Q01DX009 (ip), vehicle: Klucel (hydroxypropylcellulose) (HPC) 97 % of control | [15] 97 % of control | [16] 91 % of control | [17] 97 % of control | [18] 97 % of control

CCCC(=O)Nc1ccc(O)cc1
inactive: [15] 95 % of control | [16] 91 % of control | [17] 104 % of control | [18] 123 % of control

CC1(C)CC(=O)C2=C(C1)OC1=C(C(=O)CC(C)(C)C1)C2c1ccccc1[N+](=O)[O-]
inactive: [11] 100 % of control | [12] 95 % of control | [19] 94 % of control

COc1cc(OC)c2c(c1Cl)OCC2=O
inactive: [11] 91 % of control | [1] 103 % of control | [12] 91 % of control | [4] 94 % of control | [5] 97 % of control

O=C(OC1OC(CO)C(O)C(O)C1O)c1ccccc1 (stereo not given)
inactive: dose: 50.0 mg/kg/injection, schedule: Q01DX009 (ip), vehicle: saline 97 % of control | dose: 100.0 mg/kg/injection, schedule: Q01DX009 (ip), vehicle: saline 101 % of control | dose: 200.0 mg/kg/injection, schedule: Q01DX009 (ip), vehicle: saline 93 % of control

CC(=NCC(C)N=C(C)c1ccccc1O)c1ccccc1O.[Ni] (stereo not given)
inactive: [20] 109 % of control | [6] 97 % of control | [7] 97 % of control | [8] 97 % of control

CC(C)c1ccc2c(c1)CCC(C(Cl)Cl)C2(C)C (stereo not given)
inactive: [6] 95 % of control | [7] 111 % of control | [8] 100 % of control

COc1c(OC(C)=O)ccc2c1C=CCCC2=O
inactive: [10] 96 % of control | [11] 100 % of control | [12] 92 % of control

Cn1c(-c2ccccc2)nc2c(N)ncnc21
inactive: [2] 93 % of control | [3] 87 % of control

O=C(O)CSCSCC(=O)O
inactive: dose: 100.0 mg/kg/injection, schedule: Q04DX003 (ip), vehicle: saline 97 % of control | dose: 200.0 mg/kg/injection, schedule: Q04DX003 (ip), vehicle: saline 100 % of control | dose: 400.0 mg/kg/injection, schedule: Q04DX003 (ip), vehicle: saline 97 % of control

CC(=O)C(C(=N)C#N)C(C)=O
inactive: [20] 101 % of control | [6] 89 % of control | [7] 89 % of control

O=C(CNC(=O)OCc1ccccc1)NCC(=O)NC(Cc1ccccc1)C(=O)OCc1ccccc1 (stereo not drawn) (Cbz-Gly-Gly-[ξF]-OBn)
inactive: [1] 97 % of control | [4] 103 % of control | [5] 99 % of control

COc1cc(NC(=O)CC(C)=O)c(OC)cc1Cl
inactive: [11] 96 % of control | [12] 94 % of control | [19] 91 % of control

COc1cccc(NC(=S)/C(=C(\[O-])c2ccc([N+](=O)[O-])cc2)[n+]2ccc(C(C)C)cc2)c1
inactive: [11] 95 % of control | [12] 93 % of control

CC(C)(CC(=O)O)Cc1ccc([N+](=O)[O-])cc1
inactive: [1] 102 % of control | [4] 98 % of control | [5] 102 % of control
